Measurements published in patent publication US6117975A, “Melanocortin receptor polypeptides MC-3, MC-4, and MC-5” (The Regents of the University of Michigan, priority 1996, dated 2000).
Blank lines part the entries; values can stand above or below the compound they belong to. No end group written: not given here.

Columns and labels:
MC4 receptor [1] = target: T1, MC4 receptor (Homo sapiens, UniProt P32245); test: cAMP generation in L-cells transfected with the MC4 receptor gene; assay type: cell-based
T1 construct: expressed in transfected cells; host or cells: COS-1 (transient, lipofection); Hepa rat hepatoma; CMVneo vector
T1 sequence (P32245 whole entry): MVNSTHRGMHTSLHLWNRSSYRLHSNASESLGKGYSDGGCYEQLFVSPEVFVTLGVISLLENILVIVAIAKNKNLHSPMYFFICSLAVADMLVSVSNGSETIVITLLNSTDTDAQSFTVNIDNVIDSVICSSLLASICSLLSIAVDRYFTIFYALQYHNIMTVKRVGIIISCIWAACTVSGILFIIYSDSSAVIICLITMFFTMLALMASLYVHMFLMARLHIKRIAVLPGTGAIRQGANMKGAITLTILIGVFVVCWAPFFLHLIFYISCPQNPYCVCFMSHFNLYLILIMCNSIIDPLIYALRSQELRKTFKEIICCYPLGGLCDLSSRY
Text: (§1) Receptor Expression. […] The sequences were subsequently checked by nucleotide sequencing to insure that no sequence errors were induced by PCR. L-cells (a mouse fibroblast-like cell line) were transfected using a calcium phosphate co-precipitation method as described in Chen, C. A. et al. Bio/Techniques 6:632-638 (1988). Permanently transfected L-cells were selected by resistance to the neomysin analogue G418, and receptor mRNA expression was checked by Northern blot analysis. […] COS-1 cells which were transiently transfected with the CMVneo/MC4R gene construct by lipofection as described in Feigner, P. L. et al., PNAS (USA) 84:7413-7417 using the Lipofectin Reagent (Life Technologies Inc.) were split into 12-well plates after 24 hr and assayed 36 hr post-transfection.
(§2) cAMP Assays. For these assays a cAMP assay kit (TRK 432, Amersham Corp.) was employed. […] The cells were maintained in Dulbecco's modified Eagle's medium (GIBCO) containing 4.5 g/100 ml glucose, 10% fetal calf serum, 100 units/ml penicillin and streptomycin, 1 mM sodium pyruvate, and 1 mg/ml Geneticin. […] An aliquot (0.5 ml) of Earle's balanced salt solution was placed into each well along with 5 μl of 2×10^-2 M isobutylmethylxanthine. Varying concentrations of agonist were added, and the cells were incubated to 30 min at 37° C. Ice-cold 30% trichloracetic acid (500 μl/well) was added to stop the reaction and precipitate cellular protein. The cells were scraped and transferred to 16×150-mm glass tubes, then placed on ice for 30 min. The precipitate was then centrifuged for 10 min at 1,900×g, and the supernatant was ether extracted, lyophilized, and resuspended in 50 mM Tris, 2 mM EDTA (pH 7.5). cAMP content was then measured by a competitive binding assay according to the assay instructions.

MC3 receptor [2] = target: T2, MC3 receptor (Homo sapiens, UniProt P41968); test: cAMP generation in L-cells transfected with the MC3 receptor; assay type: cell-based; design: these were utilized to obtain full-length genomic clones by screening a genomic library; expressed in transfected cells; CMVneo vector
T2 sequence (P41968 whole entry): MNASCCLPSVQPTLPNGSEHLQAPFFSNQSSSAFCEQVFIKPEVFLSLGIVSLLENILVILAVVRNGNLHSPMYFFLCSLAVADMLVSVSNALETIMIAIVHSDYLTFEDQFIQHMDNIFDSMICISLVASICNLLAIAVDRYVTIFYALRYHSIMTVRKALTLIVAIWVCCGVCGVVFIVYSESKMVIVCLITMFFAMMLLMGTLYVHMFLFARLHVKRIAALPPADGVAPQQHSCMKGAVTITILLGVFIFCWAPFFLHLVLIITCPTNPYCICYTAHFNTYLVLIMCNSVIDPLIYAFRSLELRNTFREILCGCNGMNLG
Text: as §1, §2

MC3 receptor [3] = target: T2, MC3 receptor; test: [3H] inositol phosphate (IP) production in Hepa cells transfected with the MC3 receptor
Text: Receptor Gene Expression. The coding region of the MC3 receptor gene was subcloned into the eukaryotic expression vector CMVneo using a polymerase chain reaction (PCR) strategy as previously described. […] The insert was subsequently checked by dideoxynucleotide sequencing to insure that no errors were induced by the PCR. A rat hepatoma cell line (Hepa) which lacks endogenous melanocortin receptors was transfected with the CMVneo/MC3 receptor construct using the calcium phosphate co-precipitation method. […] Cells were selected for resistance to the neomycin analogue Geneticin (Life Sciences) and clones were subsequently chosen for high levels of receptor mRNA expression by Northern blot analysis.
Inositol Phosphate (IP) Assays. Measurement of inositol phospholipid turnover in Hepa cells was performed according to a modification of previously published methods as follows. […] Cells grown to semi-confluence in multiwell plates were prelabeled with [2-^3 H] myo-inositol in DMEM for 24 hr, incubated in EBSS for 30 min, then incubated for another 15 min in EBSS with 10 mM LiCl. The final incubation was in media with experimental ligand added for up to three min after which ice cold 100% methanol was added and the cells were scraped and extracted with 2 ml chloroform, 10 μl HCl (13 N), and 200 μl of 100 mM EDTA in a 50 ml polypropylene tube. The mixture was then vortexed and centrifuged at 1,900 X g. The supernatant was removed and its pH was adjusted to 7.0 by adding 1 N NaOH. Waters Accel plus QMA SEP-PAK anion exchange cartridges (Waters Chromatography, Millipore Corporation, Milford, Mass.) were used to separate inositol phosphates under differing concentrations of formatelformic acid. The cartridges were pretreated by washing with 10 ml of a solution of 1 M ammonium formate in 0.1 M formic acid followed by 20 ml of distilled water. The samples were applied with a flow rate of approximately 10 ml/min using a 10 ml syringe. IPs were then eluted using 10 mM increments of ammonium formate in a stepwise fashion. Inositol monophosphate was eluted with 10 mM formic acid/100 mM ammonium formate/5 mM disodium tetraborate, inositol bisphosphate was eluted with 20 mM formic acid/200 mM ammonium formate/5 mM disodium tetraborate, and IP3 was eluted with 30 mM formic acid/300 mM ammonium formate/5 mM disodium tetraborate. […] Eluted radioactivity from the pooled fractions (total inositol phosphates) were measured by liquid-scintillation spectrometry (Beckman model LS7800 instrument).

MC3 receptor [4] = target: T2, MC3 receptor; test: intracellular cAMP content in Hepa cells transfected with the MC3 receptor; assay type: cell-based; design: these were utilized to obtain full-length genomic clones by screening a genomic library; expressed in transfected cells; CMVneo vector
Protocol: Receptor Expression. […] The sequences were subsequently checked by nucleotide sequencing to insure that no sequence errors were induced by PCR. […] A rat hepatoma cell line (Hepa) which lacks endogenous melanocortin receptors was also transfected with the CMVneo/MC3R and CMVneo/MC4R constructs.
cAMP Assays. For these assays a cAMP assay kit (TRK 432, Amersham Corp.) was employed. Cells transfected with the receptors were grown to confluence in 12-well (2.4×1.7 cm) tissue culture plates. The cells were maintained in Dulbecco's modified Eagle's medium (GIBCO) containing 4.5 g/100 ml glucose, 10% fetal calf serum, 100 units/ml penicillin and streptomycin, 1 mM sodium pyruvate, and 1 mg/ml Geneticin. For assays, this medium was removed and cells were washed twice with Earle's balanced salt solution containing 10 mM Hepes (pH 7.4), 1 mM glutamine, 26.5 mM sodium bicarbonate, and 100 mg/ml bovine serum albumin. An aliquot (0.5 ml) of Earle's balanced salt solution was placed into each well along with 5 μl of 2×10^-2 M isobutylmethylxanthine. Varying concentrations of agonist were added, and the cells were incubated to 30 min at 37° C. Ice-cold 30% trichloracetic acid (500 μl/well) was added to stop the reaction and precipitate cellular protein. The cells were scraped and transferred to 16×150-mm glass tubes, then placed on ice for 30 min. The precipitate was then centrifuged for 10 min at 1,900×g, and the supernatant was ether extracted, lyophilized, and resuspended in 50 mM Tris, 2 mM EDTA (pH 7.5). cAMP content was then measured by a competitive binding assay according to the assay instructions.
Receptor Gene Expression. The coding region of the MC3 receptor gene was subcloned into the eukaryotic expression vector CMVneo using a polymerase chain reaction (PCR) strategy as previously described. […] The insert was subsequently checked by dideoxynucleotide sequencing to insure that no errors were induced by the PCR. […]

MC1 receptor [5] = target: T3, MC1 receptor (Homo sapiens, UniProt Q01726); conditions: Chhajlani et al. 1992; cited from earlier work
T3 construct: host or cells: Cos-7 cells transfected with α-MSH receptor cDNA
T3 sequence (Q01726 whole entry): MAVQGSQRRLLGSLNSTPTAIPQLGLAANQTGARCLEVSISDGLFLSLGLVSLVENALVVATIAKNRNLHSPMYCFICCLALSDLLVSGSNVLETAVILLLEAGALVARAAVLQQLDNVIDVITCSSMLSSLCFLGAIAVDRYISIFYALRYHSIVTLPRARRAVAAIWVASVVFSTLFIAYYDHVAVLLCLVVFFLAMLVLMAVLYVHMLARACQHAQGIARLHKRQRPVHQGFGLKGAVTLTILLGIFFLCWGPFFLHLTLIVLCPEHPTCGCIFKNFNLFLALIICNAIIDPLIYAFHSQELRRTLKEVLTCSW

MC1 receptor [6] = target: T4, MC1 receptor (Homo sapiens, UniProt Q01726, R163Q/S90T); test: cAMP generation in L-cells transfected with the MC1 receptor; assay type: cell-based
T4 construct: expressed in transfected cells
T4 sequence (Q01726 1-317 S90T/R163Q): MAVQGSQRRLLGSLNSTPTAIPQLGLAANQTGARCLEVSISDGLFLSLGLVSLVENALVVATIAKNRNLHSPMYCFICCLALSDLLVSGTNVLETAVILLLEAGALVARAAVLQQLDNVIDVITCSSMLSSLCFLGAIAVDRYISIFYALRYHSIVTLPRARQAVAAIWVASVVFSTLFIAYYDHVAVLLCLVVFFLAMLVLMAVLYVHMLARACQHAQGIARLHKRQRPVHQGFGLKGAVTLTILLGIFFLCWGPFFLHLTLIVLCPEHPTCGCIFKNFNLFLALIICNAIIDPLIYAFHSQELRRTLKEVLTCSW
Text: as §1, §2

MC1 receptor [7] = conditions: Mountjoy et al. 1992; cited from earlier work
MC4 receptor [8] = target: T1, MC4 receptor; test: cAMP generation in COS-1 cells transiently transfected with the MC4 receptor gene; assay type: cell-based
Text: as §1
cAMP Assays. For these assays a cAMP assay kit (TRK 432, Amersham Corp.) was employed. […] The cells were maintained in Dulbecco's modified Eagle's medium (GIBCO) containing 4.5 g/100 ml glucose, 10% fetal calf serum, 100 units/ml penicillin and streptomycin, 1 mM sodium pyruvate, and 1 mg/ml Geneticin. […] The precipitate was then centrifuged for 10 min at 1,900×g, and the supernatant was ether extracted, lyophilized, and resuspended in 50 mM Tris, 2 mM EDTA (pH 7.5). cAMP content was then measured by a competitive binding assay according to the assay instructions.

[9] = system: endogenous vasopressin receptors; test: intracellular Ca++ concentration in Hepa cells, endogenous vasopressin receptors; assay type: cell-based, rat
Protocol: Measurement of Intracellular Ca++ Concentration ([Ca++]i). For these experiments, Hepa cells were detached by incubation in Ca^++ -free EBSS with 2.0 mM EDTA, loaded with 1 μM fura-2/AM (Molecular Probes, Eugene, Oreg.) for 20 min at 37° C. in EBSS containing 0.1% BSA and 25 mM HEPES, washed by centrifugation at 50 X g, and resuspended and maintained in EBSS buffer at room temperature until the time of experimentation. [Ca^++ ]i measurements of cells suspended in a quartz cuvette were obtained using a dual-wavelength modular fluorometer (Spex-Fluorolog 2, Spex Industries, Edison, N.J.) according to previously described methods. DelValle, J. et al., Am. J. Physiol. 262:G420-426 (1992).

[10] = system: chimeric receptor cH2R/MC3R-3i; test: [3H] IP production in Hepa cells transfected with chimeric cH2R/hMC3R-3i; assay type: cell-based; conditions: chimeric cH2R/MC3R-3i
Text: (§3) Chimeric Receptor. […] The chimeric receptor (cH2R/MC3R-3i) was constructed by cassette mutation at the junction of the fifth and sixth transmembrane domains of cH2R. Six PCR primers were used to generate three DNA fragments which were subsequently ligated together. The three PCR-generated fragments consisted of 1) the 5' coding region of the cH2R receptor beginning just prior to the ATG codon and ending with the 3' end of the fifth transmembrane domain; 2) the portion of the MC3 receptor gene encoding its third intracytoplasmic loop; and 3) the 3' coding region of the cH2R beginning with that segment encoding the 5' end of the sixth transmembrane domain and ending slightly past the termination codon. The DNA fragments were cut with appropriate restriction enzymes at pre-engineered restriction sites designed so that the three fragments could be assembled together in only the correct alignment. Restriction sites were also designed to facilitate subcloning the chimeric receptor DNA into CMVneo and the sequencing vector M13. The nucleotide sequence of the CMVneo cH2R/MC3R-3i construct was confirmed prior to expression in Hepa cells.
(§4) Inositol Phosphate (IP) Assays.

[11] = target: T5, wild-type H2-histamine receptor (cH2R) (Canis lupus familiaris, UniProt P17124); conditions: Hepa cells
T5 sequence (P17124 whole entry): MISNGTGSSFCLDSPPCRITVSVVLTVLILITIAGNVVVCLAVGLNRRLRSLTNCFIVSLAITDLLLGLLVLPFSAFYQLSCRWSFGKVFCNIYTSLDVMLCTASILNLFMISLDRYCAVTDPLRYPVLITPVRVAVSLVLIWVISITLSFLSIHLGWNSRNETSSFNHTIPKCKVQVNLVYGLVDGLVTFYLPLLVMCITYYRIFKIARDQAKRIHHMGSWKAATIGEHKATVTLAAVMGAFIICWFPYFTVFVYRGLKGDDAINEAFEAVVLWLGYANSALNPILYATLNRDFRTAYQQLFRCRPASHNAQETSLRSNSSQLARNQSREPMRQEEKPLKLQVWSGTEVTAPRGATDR
Text: as §3, §4

[12] = target: T5, wild-type H2-histamine receptor (cH2R); conditions: Hepa cells; remark: listed apart in the source
Text: as §3
(§5) cAMP Assays. A cAMP assay kit purchased from Amersham (TRK 432, Arlington Heights, Ill.) was employed. Transfected cells were grown to confluence in 12-well (2.4×1.7 cm) tissue culture plates. […]

[13] = system: chimeric receptor cH2R/MC3R-3i; conditions: chimeric cH2R/MC3R-3i, Hepa cells
Text: as §3, §5

cAMP response (in words) (MC4 receptor [1]): equal potency and efficacy | cAMP response (in words) (MC3 receptor [2]): equal potency and efficacy | Emax (MC3 receptor [3]; HepA, read-out: maximal stimulation of [3H]-IP production, % of basal unstimulated value): 155% | cAMP production relative to control unstimulated levels at maximal doses (MC3 receptor [4]): exceeded 15 times the control | cAMP response (in words) (MC3 receptor [4]): stimulated cAMP production | cAMP response (in words) (MC1 receptor [6]): equal potency and efficacy
Compound: SYSMEHFRWGKPVGKKRRPVKVYPNGAEDESAEAFPLEF [ACTH, ACTH(1-39)]
inositol phospholipid turnover dose-response (in words) (MC3 receptor [3]; Hepa cells, MC3 receptor): At low doses (below 10^-11 M) there was a clear stimulatory effect, however, at higher doses, there was a dose dependent inhibitory effect | affinity in displacing 125I-labeled [Nle4,D-Phe7]α-MSH (in words) (MC1 receptor [5]): equal affinities | cAMP production via the MC1 receptor (in words) (MC1 receptor [7]): less potent and less efficacious than α-MSH | cAMP response (in words) (MC4 receptor [8]): marked increase in intracellular cAMP content

Compound: NC(=O)CC[C@@H]1NC(=O)[C@H](Cc2ccccc2)NC(=O)[C@H](Cc2ccc(O)cc2)NC(=O)[C@@H](N)CSSC[C@@H](C(=O)N2CCC[C@H]2C(=O)N[C@@H](CCCN=C(N)N)C(=O)NCC(N)=O)NC(=O)[C@H](CC(N)=O)NC1=O [vasopressin]
effect on [Ca++]i (in words) [9]: increase in [Ca^++ ]i upon stimulation of their endogenous vasopressin receptors

Compound: O=S(=O)(NCCNCC=Cc1ccc(Br)cc1)c1cccc2cnccc12 [H-89, N-[2-(p-bromocinnamyl-amino)ethyl]-5-isoquinolinesulfonamide]
effect on α-MSH stimulated [3H]-IP production (in words) (MC3 receptor [3]): restoration of the higher levels of [^3 H]-IP products observed with 10^-11 M α-MSH | concentration of maximum effect on α-MSH stimulated [3H]-IP production (MC3 receptor [3]; pretreatment, 10^-8 M α-MSH, Hepa cells, MC3 receptor): 1 µM | effect on inhibitory phase of histamine [3H]-IP dose response curve (in words) ([10]; pretreatment): abolished by pretreatment with H-89

cAMP dose-response (in words) [13]: monophasic cAMP dose-response curve
Compound: NCCc1c[nH]cn1 [histamine]
[3H]-IP production dose-response (in words) [11]: monophasic dose-dependent increases in both cAMP and [^3 H]-IP production | cAMP dose-response (in words) [12]: monophasic dose-dependent increases in both cAMP and [^3 H]-IP production | [3H]-IP production dose-response (in words) ([10]; Hepa cells): biphasic dose-response curve for [^3 H]-IP production
